In experiment [1] the test system is human lung cancer cell line H1299. Briefly: Caspase cascade activation assay in H1299 cells. The following applies: NCI-H1299, 24 h or 48 h incubation, read-out: Caspase Activation Potency EC50 H1299. The experiment is classed as cell-based. As to the method:
(§1) Human breast cancer cell lines T-47D and human lung cancer cell line H1299 were grown according to media component mixtures designated by American Type Culture Collection+10% FCS (Invitrogen Corporation), in a 5% CO2-95% humidity incubator at 37° C. T-47D and H1299 cells were maintained at a cell density between 50 and 80% confluency at a cell density of 0.1 to 0.6×10^6 cells/mL. Cells were harvested at 600×g and resuspended at 0.65×10^6 cells/mL into appropriate media+10% FCS. An aliquot of 22.5 μL of cells was added to a well of a 384-well microtiter plate containing 2.5 μL of a 10% DMSO in RPMI-1640 media solution containing 0.16 to 100 μM of N-(3,4-methylenedioxybenzyl)-6-phenylthieno[3,2-d]pyrimidin-4-amine or other test compound (0.016 to 10 μM final). An aliquot of 22.5 μL of cells was added to a well of a 384-well microtiter plate containing 2.5 μL of a 10% DMSO in RPMI-1640 media solution without test compound as the control sample. The samples were mixed by agitation and then incubated at 37° C. for 24 h or 48 h in a 5% CO2-95% humidity incubator. After incubation, the samples were removed from the incubator and 25 μL of a solution containing 14 μM of N-(Ac-DEVD)-N′-ethoxycarbonyl-R110 (SEQ ID No.:1) fluorogenic substrate (Cytovia, Inc.; WO99/18856), 20% sucrose (Sigma), 20 mM DTT (Sigma), 200 mM NaCl (Sigma), 40 mM Na PIPES buffer pH 7.2 (Sigma), and 500 μg/mL lysolecithin (Calbiochem) was added. The samples were mixed by agitation and incubated at room temperature. Using a fluorescent plate reader (Model SPECTRAfluor Plus, Tecan), an initial reading (T=0) was made approximately 1-2 min after addition of the substrate solution, employing excitation at 485 nm and emission at 530 nm, to determine the background fluorescence of the control sample. After the 3 h incubation, the samples were read for fluorescence as above (T=3 h).
(§2) The Relative Florescence Unit values (RFU) were used to calculate the sample readings as follows: RFU(T=3h)−Control RFU(T=0)=Net RFU(T=3h)
(§3) The activity of caspase cascade activation was determined by the ratio of the net RFU value for N-(3,4-methylenedioxybenzyl)-6-phenylthieno[3,2-d]pyrimidin-4-amine (Example A) or other test compound to that of control samples. The EC50 (nM) was determined by a sigmoidal dose-response calculation (Prism 3.0, GraphPad Software Inc.).

The test system of experiment [2] is human breast cancer cell line T-47D. The experiment in a line: Caspase cascade activation assay in T-47D cells. It is filed as cell-based. The settings on record: T47D, 24 h or 48 h incubation, read-out: Caspase Activation Potency EC50 T-47D. How it is done:
as §1, §2, §3

Bounds are passed on as bounds.

The EC50 is the concentration at which the effect is half-maximal. As for `c1nc(NCc2ccc3c(c2)OCO3)c2sccc2n1` [Example 1, N-(3,4-Methylenedioxybenzyl)-thieno[3,2-d]pyrimidin-4-amine], the EC50 in experiment [1] and in experiment [2] was above 10 µM each time.

Turning to `c1cc(-c2cc3ncnc(NCc4ccc5c(c4)OCO5)c3s2)ccn1` [Example 2, N-(3,4-Methylenedioxybenzyl)-6-(pyridin-4-yl)thieno[3,2-d]pyrimidin-4-amine], the EC50 in experiment [1] and in experiment [2] was above 10 µM in each case.

Take `c1coc(-c2cc3ncnc(NCc4ccc5c(c4)OCO5)c3s2)c1` [Example 4, N-(3,4-Methylenedioxybenzyl)-6-(furan-2-yl)thieno[3,2-d]pyrimidin-4-amine]: the EC50 in experiment [1] is 2.39 µM; in experiment [2], 2.43 µM.

Take `c1ccc(-c2cc3ncnc(NCc4ccc5c(c4)OCO5)c3s2)nc1` [Example 6, N-(3,4-Methylenedioxybenzyl)-6-(pyridin-2-yl)thieno[3,2-d]pyrimidin-4-amine]: the EC50 worked out at 5.1 µM in experiment [1] and 4.32 µM in experiment [2].

With `Cc1c(I)sc2c(NCc3ccc4c(c3)OCO4)ncnc12` [Example 7, N-(3,4-Methylenedioxybenzyl)-6-iodo-7-methylthieno[3,2-d]pyrimidin-4-amine], the EC50 in experiment [1] and in experiment [2] was above 10 µM throughout.

Consider `Cc1c(-c2ccccc2)sc2c(NCc3ccc4c(c3)OCO4)ncnc12` [Example 8, N-(3,4-Methylenedioxybenzyl)-7-methyl-6-phenylthieno[3,2-d]pyrimidin-4-amine], for which the EC50 in experiment [1] and in experiment [2] was above 10 µM each time.

Turning to `COc1ccc(CNc2ncnc3cc(I)sc23)cc1` [Example 9, N-(4-Methoxybenzyl)-6-iodothieno[3,2-d]pyrimidin-4-amine], the EC50 in experiment [1] and in experiment [2] was above 10 µM throughout.

For `COc1ccc(CNc2ncnc3cc(-c4ccccc4)sc23)cc1` [Example 10, N-(4-Methoxybenzyl)-6-phenylthieno[3,2-d]pyrimidin-4-amine], the EC50 was determined as 2.68 µM in experiment [1] and 1.4 µM in experiment [2].

Regarding `Brc1cc2ncnc(NCc3ccc4c(c3)OCO4)c2s1` [Example 11, N-(3,4-Methylenedioxybenzyl)-6-bromothieno[3,2-d]pyrimidin-4-amine], the EC50 in experiment [1] and in experiment [2] was above 10 µM throughout.

For `c1nc(NCc2ccc3c(c2)OCO3)c2sc(-c3ccoc3)cc2n1` [Example 12, N-(3,4-Methylenedioxybenzyl)-6-(furan-3-yl)thieno[3,2-d]pyrimidin-4-amine], the EC50 in experiment [1] was determined as 2.79 µM; in experiment [2], 2.8 µM.

In the case of `c1ncc(-c2cc3ncnc(NCc4ccc5c(c4)OCO5)c3s2)cn1` [Example 13, N-(3,4-Methylenedioxybenzyl)-6-(pyrimidin-5-yl)thieno[3,2-d]pyrimidin-4-amine], the EC50 in experiment [1] is 5.43 µM; in experiment [2] it was 5.39 µM.

With `COc1ccc(CNc2ncnc3cc(I)sc23)cc1OC` [Example 14, N-(3,4-Dimethoxybenzyl)-6-iodothieno[3,2-d]pyrimidin-4-amine], the EC50 in experiment [1] is 5.08 µM; in experiment [2] it was 4.3 µM.

In the case of `COc1ccc(CNc2ncnc3cc(-c4cccnc4)sc23)cc1OC` [Example 15, N-(3,4-Dimethoxybenzyl)-6-(pyridin-3-yl)thieno[3,2-d]pyrimidin-4-amine], the EC50 in experiment [1] and in experiment [2] was above 10 µM each time.

As for `COc1ccc(CNc2ncnc3cc(I)sc23)c(OC)c1` [Example 16, N-(2,4-Dimethoxybenzyl)-6-iodothieno[3,2-d]pyrimidin-4-amine], the EC50 was found to be 2.87 µM in experiment [1] and 1.29 µM in experiment [2].

For `COc1cc(OC)c(CNc2ncnc3cc(I)sc23)c(OC)c1` [Example 17, N-(2,4,6-Trimethoxybenzyl)-6-iodothieno[3,2-d]pyrimidin-4-amine], the EC50 in experiment [1] and in experiment [2] was above 10 µM each time.

In the case of `COc1ccc(OC)c(CNc2ncnc3cc(I)sc23)c1` [Example 18, N-(2,5-Dimethoxybenzyl)-6-iodothieno[3,2-d]pyrimidin-4-amine], the EC50 in experiment [1] was found to be 2.57 µM; in experiment [2], 2.3 µM.

Turning to `COc1cc(OC)c(CNc2ncnc3cc(-c4cccnc4)sc23)c(OC)c1` [Example 19, N-(2,4,6-Trimethoxybenzyl)-6-(pyridin-3-yl)thieno[3,2-d]pyrimidin-4-amine], the EC50 in experiment [1] was 2.89 µM; in experiment [2], 5.13 µM.

`COc1ccc(OC)c(CNc2ncnc3cc(-c4cccnc4)sc23)c1` [Example 20, N-(2,5-Dimethoxybenzyl)-6-(pyridin-3-yl)thieno[3,2-d]pyrimidin-4-amine]: the 50% effective concentration (EC50) in experiment [1] and in experiment [2] was above 10 µM throughout.

As for `Cc1nc(NCc2ccc3c(c2)OCO3)c2sc(Br)cc2n1` [Example 21, N-(3,4-Methylenedioxybenzyl)-6-bromo-2-methylthieno[3,2-d]pyrimidin-4-amine], the EC50 in experiment [1] and in experiment [2] was above 10 µM each time.

Take `CN(Cc1ccc2c(c1)OCO2)c1ncnc2cc(-c3cccnc3)sc12` [Example 22, N-(3,4-Methylenedioxybenzyl)-N-methyl-6-(pyridin-3-yl)thieno[3,2-d]pyrimidin-4-amine]: the EC50 in experiment [1] worked out at 0.157 µM; in experiment [2] it was 0.147 µM.

With `Cc1nc(NCc2ccc3c(c2)OCO3)c2sc(-c3cccnc3)cc2n1` [Example 23, N-(3,4-Methylenedioxybenzyl)-2-methyl-6-(pyridin-3-yl)thieno[3,2-d]pyrimidin-4-amine], the EC50 in experiment [1] and in experiment [2] was above 10 µM in each case.

In the case of `Oc1ccc(CNc2ncnc3cc(Br)sc23)cc1` [Example 24, N-(4-Hydroxybenzyl)-6-bromothieno[3,2-d]-pyrimidin-4-amine], the EC50 in experiment [1] and in experiment [2] was above 10 µM throughout.

Consider `Oc1ccc(CNc2ncnc3cc(-c4cccnc4)sc23)cc1` [Example 25, N-(4-Hydroxybenzyl)-6-(pyridin-3-yl)thieno[3,2-d]-pyrimidin-4-amine], for which the EC50 in experiment [1] and in experiment [2] was above 10 µM in each case.

The values are drawn from patent US20070099941A1, “N-arylalkyl-thienopyrimidin-4-amines and analogs as activators of caspases and inducers of apoptosis and the use thereof” (Cytovia, Inc., priority 2005, published 2007).
